PubChem BioAssay AID1963856 (Molecular Pharmacology Branch, DTP, NCI, 2024)

Tested on: LG0567-F671-PDC KRAS tumor spheroid viability
Experiment: Anticancer human tumor LG0567-F671-PDC patient-derived lung adenocarcinoma cell line growth inhibition [KRAS2]
Conditions: spheroids with HUVEC and MSC; for viability, T/C: stronger effect = lower value
Outline: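 KRAS-mutant tumor cells were grown as spheroids with HUVEC endothelial cells and human MSCs as stroma. Targeted agents were tested alone and with KRAS pathway inhibitors. Doses started at or near clinical Cmax, or 10 microM, descending half-log.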

[1] = curve of first compound, second compound 0.1 µM
[2] = curve of first compound, second compound 0.316 µM
[3] = curve of first compound, second compound 1 µM
[4] = curve of first compound, second compound 3.16 µM
[5] = curve of first compound, second compound 10 µM
[6] = second compound 0.1 µM, first compound 0.0316 µM
[7] = second compound 0.1 µM, first compound 0.1 µM
[8] = second compound 0.316 µM, first compound 0.0316 µM
[9] = second compound 0.316 µM, first compound 0.1 µM
[10] = second compound 1 µM, first compound 0.0316 µM
[11] = second compound 1 µM, first compound 0.1 µM
[12] = second compound 3.16 µM, first compound 0.0316 µM
[13] = second compound 3.16 µM, first compound 0.1 µM
[14] = second compound 10 µM, first compound 0.0316 µM
[15] = second compound 10 µM, first compound 0.1 µM
[16] = second compound 0.1 µM, first compound 0.316 µM
[17] = second compound 0.1 µM, first compound 1 µM
[18] = second compound 0.1 µM, first compound 3.16 µM
[19] = second compound 0.1 µM, first compound 10 µM
[20] = second compound 0.316 µM, first compound 0.316 µM
[21] = second compound 0.316 µM, first compound 1 µM
[22] = second compound 0.316 µM, first compound 3.16 µM
[23] = second compound 0.316 µM, first compound 10 µM
[24] = second compound 1 µM, first compound 0.316 µM
[25] = second compound 1 µM, first compound 1 µM
[26] = second compound 1 µM, first compound 3.16 µM
[27] = second compound 1 µM, first compound 10 µM
[28] = second compound 3.16 µM, first compound 0.316 µM
[29] = second compound 3.16 µM, first compound 1 µM
[30] = second compound 3.16 µM, first compound 3.16 µM
[31] = second compound 3.16 µM, first compound 10 µM
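Also: drug exposure lasted seven days after spheroids formed for three days.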
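For viability, T/C in this document: 100% = DMSO vehicle control viability.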

SMILES: CN(C)C/C=C/C(=O)Nc1cc2c(Nc3ccc(F)c(Cl)c3)ncnc2cc1O[C@H]1CCOC1 + COc1cc2nc(C)nc(NC(C)c3cc(N)cc(C(F)(F)F)c3)c2cc1OC1CCOC1
- IC50 [1]: 30 nM
- IC50 [2]: 4.27 nM
- IC50 [3]: 11.2 nM
- IC50 [4]: < 0.316 nM
- IC50 [5]: < 0.316 nM
- viability, T/C (second compound 0.1 µM, first compound 0.000316 µM): 88.5%
- viability, T/C (second compound 0.1 µM, first compound 0.001 µM): 68.1%
- viability, T/C (second compound 0.1 µM, first compound 0.00316 µM): 56.5%
- viability, T/C (second compound 0.1 µM, first compound 0.01 µM): 51.2%
- viability, T/C [6]: 51.6%
- viability, T/C [7]: 48.2%
- viability, T/C (second compound 0.316 µM, first compound 0.000316 µM): 69.5%
- viability, T/C (second compound 0.316 µM, first compound 0.001 µM): 60.9%
- viability, T/C (second compound 0.316 µM, first compound 0.00316 µM): 54.4%
- viability, T/C (second compound 0.316 µM, first compound 0.01 µM): 40.8%
- viability, T/C [8]: 45.1%
- viability, T/C [9]: 46.2%
- viability, T/C (second compound 1 µM, first compound 0.000316 µM): 85.9%
- viability, T/C (second compound 1 µM, first compound 0.001 µM): 66.4%
- viability, T/C (second compound 1 µM, first compound 0.00316 µM): 57.5%
- viability, T/C (second compound 1 µM, first compound 0.01 µM): 53.9%
- viability, T/C [10]: 39.8%
- viability, T/C [11]: 49.3%
- viability, T/C (second compound 3.16 µM, first compound 0.000316 µM): 45.9%
- viability, T/C (second compound 3.16 µM, first compound 0.001 µM): 43.8%
- viability, T/C (second compound 3.16 µM, first compound 0.00316 µM): 36.4%
- viability, T/C (second compound 3.16 µM, first compound 0.01 µM): 32.1%
- viability, T/C [12]: 29.8%
- viability, T/C [13]: 32.1%
- viability, T/C (second compound 10 µM, first compound 0.000316 µM): 39.6%
- viability, T/C (second compound 10 µM, first compound 0.001 µM): 35.5%
- viability, T/C (second compound 10 µM, first compound 0.00316 µM): 27.8%
- viability, T/C (second compound 10 µM, first compound 0.01 µM): 24.4%
- viability, T/C [14]: 17.8%
- viability, T/C [15]: 22.4%

SMILES: O=C(c1cc(Cc2n[nH]c(=O)c3ccccc23)ccc1F)N1CCN(C(=O)C2CC2)CC1
- viability, T/C (compound 0.0316 µM): 103% [middle of 5 runs]
- viability, T/C (compound 0.1 µM): 99.1% [middle of 5 runs]
- viability, T/C (compound 0.316 µM): 98.6% [middle of 5 runs]
- viability, T/C (compound 1 µM): 93.1% [middle of 5 runs]
- viability, T/C (compound 3.16 µM): 93.5% [middle of 5 runs]
- viability, T/C (compound 10 µM): 97.9% [middle of 5 runs]
- IC50 (curve of compound): > 10000 nM

SMILES: O=C(c1cc(Cc2n[nH]c(=O)c3ccccc23)ccc1F)N1CCN(C(=O)C2CC2)CC1 + C=CC(=O)N1CCN(c2nc(OCC3CCCN3C)nc3c2CCN(c2cccc4cccc(C)c24)C3)CC1CC#N
- IC50 (curve of first compound, second compound 0.0316 µM): < 31.6 nM
- IC50 [1]: < 31.6 nM
- IC50 [2]: < 31.6 nM
- IC50 [3]: < 31.6 nM
- IC50 [4]: < 31.6 nM
- viability, T/C (second compound 0.0316 µM, first compound 0.0316 µM): 33.1%
- viability, T/C (second compound 0.0316 µM, first compound 0.1 µM): 28.8%
- viability, T/C (second compound 0.0316 µM, first compound 0.316 µM): 89.6%
- viability, T/C (second compound 0.0316 µM, first compound 1 µM): 26%
- viability, T/C (second compound 0.0316 µM, first compound 3.16 µM): 30%
- viability, T/C (second compound 0.0316 µM, first compound 10 µM): 30.3%
- viability, T/C [6]: 21.3%
- viability, T/C [7]: 22.5%
- viability, T/C [16]: 23.6%
- viability, T/C [17]: 24.1%
- viability, T/C [18]: 27.9%
- viability, T/C [19]: 34.4%
- viability, T/C [8]: 25.6%
- viability, T/C [9]: 26%
- viability, T/C [20]: 24.1%
- viability, T/C [21]: 24.4%
- viability, T/C [22]: 23.6%
- viability, T/C [23]: 29.6%
- viability, T/C [10]: 27.9%
- viability, T/C [11]: 28.3%
- viability, T/C [24]: 26%
- viability, T/C [25]: 25.6%
- viability, T/C [26]: 25.8%
- viability, T/C [27]: 30.9%
- viability, T/C [12]: 30.1%
- viability, T/C [13]: 29.2%
- viability, T/C [28]: 33.1%
- viability, T/C [29]: 30.4%
- viability, T/C [30]: 35.4%
- viability, T/C [31]: 24.3%

SMILES: COc1cc2nccc(Oc3ccc(NC(=O)C4(C(=O)Nc5ccc(F)cc5)CC4)cc3)c2cc1OC + C=CC(=O)N1CCN(c2nc(=O)n(-c3c(C)ccnc3C(C)C)c3nc(-c4c(O)cccc4F)c(F)cc23)C(C)C1
- IC50 [1]: < 31.6 nM
- IC50 [2]: < 31.6 nM
- IC50 [3]: < 31.6 nM
- IC50 [4]: < 31.6 nM
- IC50 [5]: < 31.6 nM
- viability, T/C [6]: 24.2%
- viability, T/C [7]: 20.6%
- viability, T/C [16]: 21.3%
- viability, T/C [17]: 18.9%
- viability, T/C [18]: 10.8%
- viability, T/C [19]: 48.9%
- viability, T/C [8]: 21.5%
- viability, T/C [9]: 19.1%
- viability, T/C [20]: 17.1%
- viability, T/C [21]: 14.9%
- viability, T/C [22]: 9.77%
- viability, T/C [23]: 51.1%
- viability, T/C [10]: 22.3%
- viability, T/C [11]: 23.9%
- viability, T/C [24]: 17.6%
- viability, T/C [25]: 17.3%
- viability, T/C [26]: 9.01%
- viability, T/C [27]: 55%
- viability, T/C [12]: 21.8%
- viability, T/C [13]: 23.4%
- viability, T/C [28]: 20.3%
- viability, T/C [29]: 16.8%
- viability, T/C [30]: 8.81%
- viability, T/C [31]: 50.4%
- viability, T/C [14]: 18.3%
- viability, T/C [15]: 18.4%
- viability, T/C (second compound 10 µM, first compound 0.316 µM): 17.6%
- viability, T/C (second compound 10 µM, first compound 1 µM): 13.7%
- viability, T/C (second compound 10 µM, first compound 3.16 µM): 10.7%
- viability, T/C (second compound 10 µM, first compound 10 µM): 29.2%
